Measurements published in patent publication US20210283099A1, “CDC7 KINASE INHIBITORS AND USES THEREOF” (SLOAN-KETTERING INSTITUTE FOR CANCER RESEARCH, priority 2010, published 2021).
Read-outs that look alike come from different tables or passages of the source.

How the values were obtained:
HeLa cells = assay: Caspase-3 activity in HeLa cells; format: cell-based, human; conditions: rescued by Bcl-XL overexpression and 10 micromolar Ac-DEVD-CHO
Protocol: FIGS. 12-14. Inhibition of Granaticin A Induced Caspase-3 Activity in HeLa cells. Growth curves in the presence of the indicated micromolar concentrations of granaticin A were performed and caspase-3 activity was measured following addition of a substrate that when cleaved by caspase-3 results in light emission which is quantitated by a fluorimeter (y-axis) as a function of time (x-axis).

PhALL3.1 [1] = assay: SCID-Beige mouse intraperitoneal tumor model of PhALL3.1; format: in vivo
Protocol: FIGS. 19A-19B. Granaticin A Inhibits growth of PhALL3. 1 in vivo: Using a SCID-Beige mouse intraperitoneal tumor model of PhALL3.1, mice were intraperitoneally treated with vehicle control (DMSO) or the indicated doses of granaticin A on days 3, 6, 9, and 12. Day 16 in vivo bioluminescence imaging (FIG. 19A) and quantitation of tumor volume are shown (FIG. 19B) and indicate 90% reduction in tumor volume by Day 16 in mice treated at the highest dose (3.0 mg/kg).

Ph-ALL3.1 cells [2] = assay: Release of elutriated G1 phase cells, 3H-thymidine incorporation and FACS; format: cell-based, human; set-up: dose or concentration left out as unconfirmed; conditions: G1 phase fraction released into granaticin A
Protocol: FIG. 2. Elutriation profile of PhALL3.1: Centrifugal elutriation was used to synchronize the recently established Philadelphia chromosome positive acute lymphoblastic leukemia cell line (PhALL3.1). An asynchronous culture (4 liters) was pelleted, resuspended in a small volume (20 ml), and loaded into the elutriation rotor as outlined by the manufacturer (Beckman). After equilibration and washing, cell samples were eluted from the rotor based on size with the smaller cells exiting the rotor first. Ten fractions (250 ml) were taken across the gradient and standard FACS analysis performed on 10 ml of each fraction looking at DNA content. G1, S, and G2 phase cell populations are indicated in the asynchronous profile. This method allows for isolation of phase specific cell populations.
FIG. 3. […] Ph-ALL3.1 cells were subjected to standard centrifugal elutriation conditions and the G1 phase fraction, as determined by FACS analysis (Time Zero), was released into granaticin A ([…]) or vehicle control (DMSO) for the indicated times. Cell samples post-release into granaticin A or vehicle control (DMSO) were pulsed for 2 hours with ^3H-thymidine and samples were collected, washed, and acid precipitable counts were measured by scintillation counting. X-axis is time post-release into compound or control (in hours) and y-axis is counts per minute (CPM). […]

[3] = Liver microsome stability test; format: in vitro ADME
Protocol: The stability of granaticin A was determined in mouse and human liver microsomes.

Mcm2 phosphorylation = assay: Western blotting of Mcm2 after S phase release; format: cell-based, human; conditions: PhALL3.1 cells, as early as 2 hours post release
Text: FIG. 7. Granaticin A Inhibits Mcm2 phosphorylation: Following synchronization in S phase and release, PhALL3.1 cells from the experiments of FIG. 5 and FIG. 6 were collected at the indicated times post release into either control (DMSO) or granaticin A and extracts were subjected to Western blotting to detect total Mcm2 protein.

Ph-ALL3.1 cells [4] = assay: Release of elutriated S phase cells, FACS and 3H-thymidine incorporation; format: cell-based, human
Protocol: FIG. 5. […] Ph-ALL3.1 cells were subjected to standard centrifugal elutriation conditions and the S phase fraction, as determined by FACS analysis, was released into granaticin A (1 μM) or vehicle control (DMSO) for the indicated times and FACS analysis was performed. […] Apoptosis was confirmed in additional independent experiments. Asynchronous and time zero correspond to an asynchronous cell sample and the elutriated S phase fraction prior to release, respectively.
FIG. 6. Thymidine incorporation in S-phase: ^3H-Thymidine incorporation during the release experiment outlined in the slide above. Cell samples post-release into granaticin A or vehicle control (DMSO) were pulsed for 2 hours with ^3H-thymidine, and samples were collected, washed, and acid precipitable counts were measured by scintillation counting. X-axis is time post-release into compound or control (in hours) and y-axis is counts per minute (CPM).

SKMEL-28 = assay: Nude mouse xenograft, melanoma; format: in vivo; conditions: 2.5 mg/kg/day continuous, osmotic diffusion pumps; sections at day 28
Protocol: (§1) FIG. 22A-22C. Granaticin B is Effective Against Multiple Solid Tumors: granaticin B is efficacious against mouse models of melanoma (FIG. 22A), non-small cell lung cancer (FIG. 22B), and ovarian cancer (FIG. 22C). For the ovarian cancer experiments, SCID-Beige mice were injected with 5 million OVCAR3 cells that had been transduced with a GFP-firefly luciferase expressing plasmid (Frattini, M. G. and Brentjens, R. J., unpublished data). These cells were then injected intraperitoneally into 4 cohorts of mice on Day 1. From days 7-14 the mice were injected daily with the indicated concentrations of granaticin B in the intraperitoneal space. […] Nude mice were treated with 2.5 mg/kg/day granaticin B in a continuous fashion using osmotic diffusion pumps. Sections of the treated xenografts are shown after euthanasia at day 28 and H&E staining.

OVCAR3 cells = assay: OVCAR3 intraperitoneal ovarian cancer model in SCID-Beige mice; format: in vivo, mouse; conditions: 3 mg/kg intraperitoneally daily days 7-14; imaging on day 42
Protocol: as §1

A459 cells = assay: Nude mouse xenograft, non small-cell lung cancer; format: in vivo; conditions: 2.5 mg/kg/day continuous, osmotic diffusion pumps; sections at day 28
Protocol: as §1

PhALL3.1 [5] = format: in vivo
Text: FIGS. 20A-20C. Granaticin B Inhibits Ph-ALL3. 1 growth in vivo: Given the rapid intravenous clearance of granaticin A by the liver, granaticin B was used in a continuous infusion experiment with the PhALL3.1 animal model. Diffusion pumps containing granaticin B were surgically implanted in the flanks of 5 cohorts of mice on day +3 after injection of 5 million cells via the tail veins, and the drug (or control—C-DMSO) at the indicated concentration was allowed to diffuse for seven days before pump removal. The mice were imaged on day 12 (FIGS. 20A-20B) and tumor volume remaining was calculated (FIG. 20C).

JOKE-2 cells = assay: Trypan blue viability and caspase-3 assay; format: cell-based, human; conditions: 1 microM
Protocol: FIGS. 24A-24B. […] The JOKE-2 cell line was derived from a patient with Philadelphia chromosome positive Acute Lymphoblastic Leukemia (Ph-ALL). […] FIG. 24A: Joke-2 cells were grown in the presence of DMSO control or granaticin B (1 microM) for the indicated times and viability was measured after staining a cell sample in trypan blue (Sigma-Aldrich).

CC1OC2CC(O)C1(O)c1c(O)c3c(c(O)c12)C(=O)C1=C(C3=O)[C@H](C)O[C@H]2CC(=O)O[C@@H]12 (stereo partly shown) [Granaticin A, granaticin A]
caspase-3 activity (HeLa cells): activation of caspase-3 and apoptosis
organ toxicity at necropsy (PhALL3.1 [1]; all mice examined at each dose level): no significant (grade 2 or higher) organ toxicity
reduction in tumor volume (PhALL3.1 [1]; highest dose 3.0 mg/kg intraperitoneally on days 3, 6, 9, 12, Day 16 bioluminescence imaging): 90%
3H-thymidine incorporation (Ph-ALL3.1 cells [2]): stop incorporating ^3H-thymidine
cell cycle profile (Ph-ALL3.1 cells [2]): G1 phase arrest
recovery at 30 min ([3]; human liver microsomes): 23.9%
recovery at 60 min ([3]; human liver microsomes): 12%
recovery at 30 min ([3]; mouse liver microsomes): 3.68%
recovery at 60 min ([3]; mouse liver microsomes): 3.84%
Mcm2 phosphorylation in cells (Mcm2 phosphorylation): inhibition of Mcm2 phosphorylation
cell cycle profile by FACS (Ph-ALL3.1 cells [4]; S phase fraction released into 1 μM): cell cycle arrest and apoptosis
3H-thymidine incorporation (Ph-ALL3.1 cells [4]; S phase fraction, 2 hours pulses post-release): markedly reduced incorporation

CC1OC2CC(O[C@H]3CC[C@H](O)[C@H](C)O3)C1(O)c1c(O)c3c(c(O)c12)C(=O)C1=C(C3=O)[C@H](C)O[C@H]2CC(=O)O[C@@H]12 (stereo partly shown) [Granaticin B, granaticin B]
efficacy in mouse model of melanoma (SKMEL-28): efficacious
disease by luciferase imaging (OVCAR3 cells): essentially no disease
efficacy in mouse model of non-small cell lung cancer (A459 cells): efficacious
tumor reduction (PhALL3.1 [5]; highest dose, diffusion pump for seven days from day +3, imaged on day 12): 95%
organ toxicity at necropsy (PhALL3.1 [5]; mouse, in vivo): without obvious organ toxicity
caspase-3 activation (JOKE-2 cells): only activated in cells exposed to granaticin B
effect on viability (trypan blue) (JOKE-2 cells): very effective
